Results on four compounds are retold here after patent publication US10208056B2, “Condensed tricyclic compounds as protein kinase inhibitors” (FUNDACIÓN DEL SECTOR PÚBLICO ESTATAL CENTRO NACIONAL DE …, priority 2015, dated 2019).

Experiment [1] has as its system SW620. Briefly: In vitro cell proliferation assay (CellTiter-Glo), SW620. As to conditions: Homo sapiens, SW-620; growth inhibition, semiquantitative; read-out: GI50 SW620. The experiment is classed as cell-based, human. For orientation: Cellular ATP, detected with luciferase, serves as a proxy for viable cell number.
Experiment [2] deals with SW620 cells. Briefly: Colony formation assay. It is filed as cell-based, human. As to conditions: SW620 cells treated 11 days. As for the experimental part:
The in vitro potency of the compounds was measured by colony formation assays. SW620 cells in logarithmic growth phase are plated at 800 cells per well in 6-well plates (Solmeglas 13118) in RPMI media (Sigma-Aldrich R6504) supplemented with 10% foetal bovine serum (Sigma-Aldrich F7524), Penicillin/Streptomycin solution diluted 1:100 (Gibco 15070-063), and fungizone (Gibco, 15290-018), and allowed to adhere overnight at 37° C. in 5% CO2. Compounds are then added to the cell media from a final concentration of 10 μM in 10-fold serial dilutions and the cells are incubated at 37° C. in 5% CO2. Every three days the medium is changed by fresh medium and compounds are added again. After 11 days, colonies are washed with PBS and fixed in 0.5% crystal violet (Sigma-Aldrich Ref. V5265), 6% glutaraldehide (Sigma-Aldrich Ref. G5882) for 30 minutes. After extensive washing, colonies are dissolved in 2 ml of 10% glacial acetic acid (Sigma-Aldrich Ref. 537020) and absorbance at 590 nm is measured in the Victor 1420 Multilabel Counter (Perkin Elmer). The absorbance in cells treated with DMSO is taken as hundred percent of proliferation. The percentage of proliferation is finally plotted against concentration for each compound and EC50s for colony formation inhibition are calculated using ActivityBase from IDBS.

Experiment [3] deals with T1, intracellular CDK8 (Homo sapiens (Human), UniProt P49336). Briefly: Endogenous phosphoSTAT1 inhibition in SW620 cells growing in 10% FBS. It is filed as cell-based. The following applies: semiquantitative, read-out: SW620 P-STAT1(S727). As for the experimental part:
Endogenous phosphoSTAT1 inhibition can be screened in cells growing in 10% FBS. Cells are plated as described before and treated for 8 h with compounds as described before. Then cells are lysated and phospho STAT1 is evaluated as described before. The percentage of phosphorylated STAT1 vs total STAT1 in cells treated with DMSO is taken as hundred percent of phosphorylation. The percentage of STAT1 phosphorylation is finally plotted against concentration for each compound and EC50s for intracellular CDK8 inhibition are calculated using ActivityBase from IDBS.

For experiment [4], the target named is CDK8/Cyclin C (Homo sapiens (Human), UniProt P49336). Briefly: CDK8/Cyclin C binding assay (LanthaScreen Eu-Kinase Binding Assay). As to conditions: binding assay. As for the experimental part:
The enzyme has been purchase from Invitrogen (PV4402) as a dimer of full-length His-tagged recombinant human proteins.
Assays were performed in 384-well plates. The final read out was generated using an EnVision plate reader (Perkin-Elmer).
(In general: TR-FRET usually uses a lanthanide donor and a delayed reading to cut background.)

Experiment [5] deals with CDK19/Cyclin C (Homo sapiens (Human), UniProt Q9BWU1). Briefly: CDK19/Cyclin C binding assay (LanthaScreen Eu-Kinase Binding Assay). As to conditions: read-out: CDK19-CYCC IC50. In outline:
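LanthaScreen TR-FRET tracer-displacement format with 2 nM Cdk19-Cyclin C, 20 nM tracer and 2 nM Eu-anti-GST antibody. The buffer was 50 mM HEPES pH 7.5, 10 mM MgCl2, 1 mM EGTA, 0.01% Brij-35, with 1% DMSO final. Compounds were tested as 1:3 serial dilutions and incubated for 60 min at 25 °C.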

The subject of experiment [6] is MV4:11. Briefly: In vitro cell proliferation assay (CellTiter-Glo), MV4:11. As to conditions: Homo sapiens, MV4-11; growth inhibition, semiquantitative; read-out: GI50 MV4:11. The experiment is classed as cell-based.
Experiment [7] addresses T1, intracellular CDK8. Briefly: Cellular CDK8 inhibition assay, western blot P-STAT1 (S727) in IFN-γ treated SW620 cells. The following applies: SW620, IFNγ treated, semiquantitative; read-out: SW620 P-STAT1(S727) w IFNγ. The experiment is classed as cell-based. As for the experimental part: Compounds can be screened for their ability to inhibit intracellular CDK8 using a western blot assay to detect phosphorylation of the CDK8 substrate STAT1 (S727) in IFN-γ treated cells. SW620 cells are plated at 1*10^6 cells per well in 6-well plates (Solmeglas 13118) in RPMI media (Sigma-Aldrich R6504) supplemented with 10% foetal bovine serum (Sigma-Aldrich F7524), Penicillin/Streptomycin solution diluted 1:100 (Gibco 15070-063), and fungizone (Gibco, 15290-018), and allowed to adhere overnight at 37° C. in 5% CO2. Compounds are then added to the cell media from a final concentration of 10 μM in 10-fold serial dilutions and the cells are incubated at 37° C. in 5% CO2. After 1 hour, IFNγ (R&D systems Ref. RYD-285-IF-100) is added to a final concentration of […]. After 3 hours of treatment with IFNγ, the cells are washed in PBS, lysed adding 100 μl of protein lysis buffer (62.5 mM Tris pH 6.8 al 6.25%, 2% SDS y 10% glycerol) incubation 10 minutes at room temperature and heating at 95° C. 10 min. The protein content of the lysates is determined by DC protein assay (Biorad, Ref. 5000116). The proteins are resolved by SDS-PAGE and transferred to nitrocellulose membrane (VWR International eurolab, Ref. 732-4007). The membranes are incubated overnight at 4° C. with antibodies specific for total STAT1 (BD Transduction laboratory #610115), phosphoserine-727 STAT1 (Cell Signaling Ref. 9177) they are washed and then incubated with IRDye800 conjugated anti-mouse (Pierce/Cultek, 35521) and Alexa Fluor 680 goat anti-rabbit IgG secondary antibodies (Invitrogen, A21076). The bands are visualized and quantified using an Odyssey infrared imaging system (Li-Cor Biosciences). The percentage of phosphorylated STAT1 vs total STAT1 in cells treated with IFNγ is taken as hundred percent of phosphorylation. The percentage of STAT1 phosphorylation is finally plotted against concentration for each compound and EC50s for intracellular CDK8 inhibition are calculated using ActivityBase from IDBS.
In general terms: In western blotting, separated proteins are transferred to a membrane and probed.

The test system of experiment [8] is MDA-MB-231. Briefly: In vitro cell proliferation assay (CellTiter-Glo), MDA-MB-231. The experiment is classed as cell-based. The following applies: Homo sapiens, MDA-MB-231; growth inhibition, semiquantitative; read-out: GI50 MDA-MB-231.
Experiment [9] deals with Molm13. Briefly: In vitro cell proliferation assay (CellTiter-Glo), Molm13. The experiment is classed as cell-based. As to conditions: Homo sapiens, MOLM-13; growth inhibition, semiquantitative; read-out: GI50 Molm13.
Experiment [10] relates to H3T3ph in tumoral cells from colon, breast and cervix. The following applies: dose dependent; cited from earlier work.
The test system of experiment [11] is MDAMB231. Briefly: Combination assay, MDAMB231. The experiment is classed as cell-based. As to conditions: Homo sapiens, MDA-MB-231; MDAMB231, chemotherapeutic alone; read-out: Chemo GI50. As for the experimental part: (§1) The combination index (CI) of combinations of certain example compounds and various chemotherapeutic agents in the CellTitetI-Glo® in vitro cell proliferation assays may be tested. A combination index score is calculated by the Chou and Talalay method (CalcuSyn software, Biosoft). The strength of synergy is scored using the ranking system Chou and Talalay: CI less than 0.8 indicates synergy, CI between 0.8 and 1.2 indicates additivity and CI greater than 1.2 indicates antagonism.
(§2) The EC50 values of representative combinations are also calculated. The individually measured EC50 values of the chemotherapeutic agent and the example compounds are compared to the EC50 value of the combination. The cell lines are characterised by tumor type. Combination assays are performed as described in: “Pim 1 kinase inhibitor ETP-45299 suppresses cellular proliferation and synergizes with PI3K inhibition”. Blanco-Aparicio, Carmen; Collazo, Ana Maria Garcia; Oyarzabal, Julen; Leal, Juan F.; Albaran, Maria Isabel; Lima, Francisco Ramos; Pequeno, Belen; Ajenjo, Nuria; Becerra, Mercedes; Alfonso, Patricia; Reymundo, Maria Isabel; Palacios, Irene; Mateos, Genoveva; Quinones, Helena; Corrionero, Ana; Carnero, Amancio; Pevarello, Paolo; Lopez, Ana Rodriguez; Fominaya, Jesus; Pastor, Joaquin; Bischoff, James R. Cancer Letters (Shannon, Ireland) 2011, 300(2), 145-153

Experiment [12] relates to BXPC-3. Briefly: Combination assay, BXPC-3. The experiment is classed as cell-based. As to conditions: Homo sapiens; BXPC-3, chemotherapeutic alone; read-out: Chemo GI50. As for the experimental part: as §1, §2
The test system of experiment [13] is A549. Briefly: Combination assay, A549. It is filed as cell-based. As to conditions: Homo sapiens; A549, chemotherapeutic alone; read-out: Chemo GI50. As for the experimental part: as §1, §2
Experiment [14] relates to SW620. Briefly: Combination assay, SW620. It is filed as cell-based, human. As to conditions: Homo sapiens, SW-620; SW620, chemotherapeutic alone; read-out: Chemo GI50. The method, boiled down:
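Cells treated with example compounds combined with chemotherapeutic agents, proliferation read by CellTiter-Glo. Combination index from the Chou–Talalay method (CI <0.8 synergy, 0.8–1.2 additivity, >1.2 antagonism); EC50 of the combination also derived alongside single-agent EC50s.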

In experiment [15] the test system is SKMEL19. Briefly: Combination assay, SKMEL19. The following applies: Homo sapiens, SK-MEL19; SKMEL19, chemotherapeutic alone; read-out: Chemo GI50. The experiment is classed as cell-based. As to the method: as §1, §2
In experiment [16] the target is Haspin kinase (Homo sapiens (Human), UniProt Q8TF76). Briefly: Haspin kinase assay (ADP-Glo). It is filed as biochemical. As to conditions: ATP 150 μM. The method, boiled down: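 Compounds in 1:3 serial dilutions (1% DMSO final) were incubated 60 min at 30 °C with 20 nM recombinant GST-Haspin kinase domain and 150 μM ATP, without substrate, in pH 7.4 HEPES/MgCl2 buffer. ADP formed was read by luciferase luminescence and normalized to uninhibited enzyme to give % inhibition.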

For experiment [17], the target named is intracellular HASPIN (Homo sapiens (Human), UniProt Q8TF76). Briefly: Cellular HASPIN inhibition assay, western blot phospho H3T3 in synchronized SW620 cells. It is filed as cell-based. As to conditions: semiquantitative, read-out: SW620 PH3(T3) in synchronized cells. As to the method:
Compounds can be screened for their ability to inhibit intracellular HASPIN using a western blot assay to detect phosphorylation of the HASPIN substrate H3T3 in synchronized cells. SW620 cells are plated at 200000 cells per well in 6-well plates (Solmeglas 13118) in RPMI media (Sigma-Aldrich R6504) supplemented with 10% foetal bovine serum (Sigma-Aldrich F7524), Penicillin/Streptomycin solution diluted 1:100 (Gibco 15070-063), and fungizone (Gibco, 15290-018), and allowed to adhere overnight at 37° C. in 5% CO2. Cells are then treated 16 h hours with Nocadazole (Sigma-Aldrich M1404) at 250 ng/ml to arrest them in mitosis. Proteasoma inhibitor MG132 (Sigma-Aldrich C2211) is added to a final concentration of […] to keep cells arrested in mitosis. Compounds are then added to the cell media from a final concentration of 10 μM in 10-fold serial dilutions and the cells are incubated at 37° C. in 5% CO2. After 1 hour and 30 minutes of treatment with the compounds, the cells are washed in PBS, lysed adding 100 μl of protein lysis buffer (62.5 mM Tris pH 6.8 al 6.25%, 2% SDS y 10% glycerol) incubation 10 minutes at room temperature and heating at 95° C. 10 min. The protein content of the lysates is determined by DC protein assay (Biorad, Ref. 5000116). The proteins are resolved by SDS-PAGE and transferred to nitrocellulose membrane (VWR International eurolab, Ref. 732-4007). The membranes are incubated overnight at 4° C. with antibodies specific for total H3 (Millipore #07424), phosphothreonine-3 H3 (Cell Signaling Ref. 14269) they are washed and then incubated with IRDye800 conjugated anti-mouse (Pierce/Cultek, 35521) and Alexa Fluor 680 goat anti-rabbit IgG secondary antibodies (Invitrogen, A21076). The bands are visualized and quantified using an Odyssey infrared imaging system (Li-Cor Biosciences). The percentage of phosphorylated H3 vs total H3 in synchronized cells is taken as hundred percent of phosphorylation. The percentage of H3 phosphorylation is finally plotted against concentration for each compound and EC50s for intracellular HASPIN inhibition are calculated using ActivityBase from IDBS.

T1 sequence (P49336 whole entry): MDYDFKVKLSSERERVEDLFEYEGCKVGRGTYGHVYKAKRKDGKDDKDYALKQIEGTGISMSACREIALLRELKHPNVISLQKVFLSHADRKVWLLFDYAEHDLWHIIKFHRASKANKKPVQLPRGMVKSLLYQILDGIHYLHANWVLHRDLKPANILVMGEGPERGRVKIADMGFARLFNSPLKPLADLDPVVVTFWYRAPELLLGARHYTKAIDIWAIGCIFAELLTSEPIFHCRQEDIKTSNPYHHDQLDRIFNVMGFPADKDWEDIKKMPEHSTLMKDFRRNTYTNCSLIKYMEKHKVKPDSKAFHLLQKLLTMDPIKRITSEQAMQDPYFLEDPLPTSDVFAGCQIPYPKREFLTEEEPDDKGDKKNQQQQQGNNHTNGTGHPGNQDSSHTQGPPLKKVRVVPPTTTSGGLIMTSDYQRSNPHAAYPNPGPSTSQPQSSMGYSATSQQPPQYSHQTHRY
T1 sequence (P24863 whole entry partner): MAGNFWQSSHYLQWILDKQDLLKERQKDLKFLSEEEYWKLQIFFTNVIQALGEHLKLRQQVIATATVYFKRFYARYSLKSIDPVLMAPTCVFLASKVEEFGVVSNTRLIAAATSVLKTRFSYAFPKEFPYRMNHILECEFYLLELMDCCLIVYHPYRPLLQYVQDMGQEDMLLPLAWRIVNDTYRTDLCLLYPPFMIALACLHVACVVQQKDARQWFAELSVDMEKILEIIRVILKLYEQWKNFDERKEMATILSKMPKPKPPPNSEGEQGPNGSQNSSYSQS
T1 sequence (Q93074 whole entry partner): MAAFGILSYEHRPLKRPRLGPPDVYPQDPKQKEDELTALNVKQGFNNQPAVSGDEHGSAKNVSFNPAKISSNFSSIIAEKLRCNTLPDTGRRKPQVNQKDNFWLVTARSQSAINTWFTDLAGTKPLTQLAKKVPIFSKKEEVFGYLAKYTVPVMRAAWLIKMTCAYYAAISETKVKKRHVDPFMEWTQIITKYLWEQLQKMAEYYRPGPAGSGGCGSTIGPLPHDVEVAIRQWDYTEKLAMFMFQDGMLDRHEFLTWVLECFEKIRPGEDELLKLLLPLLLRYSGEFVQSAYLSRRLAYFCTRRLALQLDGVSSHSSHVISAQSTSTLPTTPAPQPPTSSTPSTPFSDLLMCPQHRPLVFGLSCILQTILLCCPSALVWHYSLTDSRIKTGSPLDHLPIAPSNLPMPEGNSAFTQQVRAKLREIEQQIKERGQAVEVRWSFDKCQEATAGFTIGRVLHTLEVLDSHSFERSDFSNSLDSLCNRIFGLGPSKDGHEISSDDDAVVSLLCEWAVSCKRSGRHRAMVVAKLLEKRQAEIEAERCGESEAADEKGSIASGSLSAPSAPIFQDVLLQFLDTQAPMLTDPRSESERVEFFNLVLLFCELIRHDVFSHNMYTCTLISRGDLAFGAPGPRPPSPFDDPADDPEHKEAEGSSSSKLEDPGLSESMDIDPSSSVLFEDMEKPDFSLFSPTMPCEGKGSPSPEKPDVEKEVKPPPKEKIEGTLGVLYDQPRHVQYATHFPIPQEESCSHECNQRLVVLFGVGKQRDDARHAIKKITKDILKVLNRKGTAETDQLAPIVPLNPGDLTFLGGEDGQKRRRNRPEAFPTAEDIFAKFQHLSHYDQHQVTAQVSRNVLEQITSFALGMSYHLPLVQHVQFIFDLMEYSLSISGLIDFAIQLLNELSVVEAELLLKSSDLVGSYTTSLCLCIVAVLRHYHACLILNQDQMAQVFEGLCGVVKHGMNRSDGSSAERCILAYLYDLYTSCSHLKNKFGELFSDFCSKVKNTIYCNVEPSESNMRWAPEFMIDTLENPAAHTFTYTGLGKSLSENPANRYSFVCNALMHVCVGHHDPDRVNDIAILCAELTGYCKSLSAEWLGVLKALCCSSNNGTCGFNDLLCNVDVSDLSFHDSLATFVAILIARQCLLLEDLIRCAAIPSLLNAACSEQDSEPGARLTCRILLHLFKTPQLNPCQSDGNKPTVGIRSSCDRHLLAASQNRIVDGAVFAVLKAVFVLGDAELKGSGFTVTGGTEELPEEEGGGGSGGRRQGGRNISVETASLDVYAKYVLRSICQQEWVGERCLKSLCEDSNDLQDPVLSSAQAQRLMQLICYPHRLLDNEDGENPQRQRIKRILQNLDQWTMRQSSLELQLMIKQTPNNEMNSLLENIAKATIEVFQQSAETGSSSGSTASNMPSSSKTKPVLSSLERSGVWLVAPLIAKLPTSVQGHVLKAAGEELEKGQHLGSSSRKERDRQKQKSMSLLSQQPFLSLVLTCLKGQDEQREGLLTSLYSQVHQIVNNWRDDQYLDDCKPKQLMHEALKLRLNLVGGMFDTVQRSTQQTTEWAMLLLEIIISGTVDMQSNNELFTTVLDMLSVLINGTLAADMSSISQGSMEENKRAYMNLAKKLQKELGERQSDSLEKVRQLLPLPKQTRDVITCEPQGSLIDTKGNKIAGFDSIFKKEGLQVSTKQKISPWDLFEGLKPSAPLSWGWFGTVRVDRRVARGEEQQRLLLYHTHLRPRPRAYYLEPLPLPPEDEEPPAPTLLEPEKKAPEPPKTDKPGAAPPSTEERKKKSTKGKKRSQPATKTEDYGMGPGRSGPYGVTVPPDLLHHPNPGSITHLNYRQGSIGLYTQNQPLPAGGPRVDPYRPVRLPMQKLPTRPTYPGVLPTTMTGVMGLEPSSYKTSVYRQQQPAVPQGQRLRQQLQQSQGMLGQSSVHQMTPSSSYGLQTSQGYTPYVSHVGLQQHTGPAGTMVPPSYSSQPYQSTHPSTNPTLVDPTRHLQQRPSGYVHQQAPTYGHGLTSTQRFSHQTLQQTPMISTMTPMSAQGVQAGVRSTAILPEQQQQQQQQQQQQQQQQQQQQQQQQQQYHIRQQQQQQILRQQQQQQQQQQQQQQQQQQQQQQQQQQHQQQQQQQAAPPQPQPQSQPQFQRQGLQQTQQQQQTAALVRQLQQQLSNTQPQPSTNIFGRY
Chain of CDK8/Cyclin C (P49336 whole entry): as the sequence (P49336 whole entry) above
Chain of CDK8/Cyclin C (P24863 whole entry partner): as the sequence (P24863 whole entry partner) above
Chain of CDK19/Cyclin C (Q9BWU1 whole entry): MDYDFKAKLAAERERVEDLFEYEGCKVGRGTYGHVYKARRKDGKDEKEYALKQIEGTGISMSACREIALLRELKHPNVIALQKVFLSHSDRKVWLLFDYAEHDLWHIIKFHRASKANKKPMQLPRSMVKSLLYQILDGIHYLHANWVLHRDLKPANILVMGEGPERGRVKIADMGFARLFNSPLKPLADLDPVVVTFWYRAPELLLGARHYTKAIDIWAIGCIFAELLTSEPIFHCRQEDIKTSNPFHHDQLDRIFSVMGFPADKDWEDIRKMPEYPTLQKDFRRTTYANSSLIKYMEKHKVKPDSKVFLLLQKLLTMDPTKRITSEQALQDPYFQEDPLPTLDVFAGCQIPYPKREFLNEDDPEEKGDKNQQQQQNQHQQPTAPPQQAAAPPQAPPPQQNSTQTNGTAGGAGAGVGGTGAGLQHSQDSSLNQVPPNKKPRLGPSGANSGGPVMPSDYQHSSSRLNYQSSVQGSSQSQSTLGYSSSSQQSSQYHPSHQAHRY
Chain of CDK19/Cyclin C (P24863 whole entry partner): as the sequence (P24863 whole entry partner) above
Chain of intracellular HASPIN (Q8TF76 whole entry): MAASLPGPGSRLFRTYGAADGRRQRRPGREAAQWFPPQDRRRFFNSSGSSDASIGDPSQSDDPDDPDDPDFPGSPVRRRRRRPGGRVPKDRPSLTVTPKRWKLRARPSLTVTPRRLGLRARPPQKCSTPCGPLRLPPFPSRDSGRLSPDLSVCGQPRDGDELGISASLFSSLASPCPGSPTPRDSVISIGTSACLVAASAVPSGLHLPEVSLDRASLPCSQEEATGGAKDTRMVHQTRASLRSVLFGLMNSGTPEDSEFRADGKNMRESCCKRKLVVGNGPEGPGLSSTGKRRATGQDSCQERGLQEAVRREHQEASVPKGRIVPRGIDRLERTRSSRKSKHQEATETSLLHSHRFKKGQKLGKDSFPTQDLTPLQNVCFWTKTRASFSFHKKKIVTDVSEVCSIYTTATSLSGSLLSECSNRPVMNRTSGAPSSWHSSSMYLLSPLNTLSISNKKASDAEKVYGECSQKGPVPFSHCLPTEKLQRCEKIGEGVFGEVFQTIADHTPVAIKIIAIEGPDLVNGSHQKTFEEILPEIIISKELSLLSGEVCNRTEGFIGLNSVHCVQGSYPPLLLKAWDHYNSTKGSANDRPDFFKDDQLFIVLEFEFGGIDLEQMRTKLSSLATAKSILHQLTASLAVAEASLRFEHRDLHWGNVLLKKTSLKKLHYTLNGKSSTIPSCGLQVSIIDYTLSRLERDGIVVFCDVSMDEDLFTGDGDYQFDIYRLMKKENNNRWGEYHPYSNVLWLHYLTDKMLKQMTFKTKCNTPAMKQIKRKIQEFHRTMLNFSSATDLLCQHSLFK
Chain of Haspin kinase (Q8TF76 484-798): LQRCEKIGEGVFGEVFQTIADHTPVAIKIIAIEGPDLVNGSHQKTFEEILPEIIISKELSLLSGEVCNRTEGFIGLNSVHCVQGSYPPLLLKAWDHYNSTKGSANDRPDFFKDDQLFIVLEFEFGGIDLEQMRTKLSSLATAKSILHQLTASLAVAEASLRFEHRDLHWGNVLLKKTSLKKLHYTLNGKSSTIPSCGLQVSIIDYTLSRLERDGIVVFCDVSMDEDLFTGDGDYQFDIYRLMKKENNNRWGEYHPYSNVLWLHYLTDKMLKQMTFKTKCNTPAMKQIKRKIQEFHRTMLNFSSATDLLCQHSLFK

On to `NC(=O)c1cc2c([nH]1)-c1ccncc1O[C@H]2C1CCCCC1` (single isomer, unassigned) [Example 70], for which the GI50 in experiment [1] was 1000 to 10000 nM; in experiment [6], less than 1000 nM; in [8] it was 10000 to 100000 nM; in experiment [9], 1000 to 10000 nM. The “effect in colony forming assay” value in experiment [2] was “dose-dependent effect”. Moreover, the EC50 in experiment [3] and in experiment [7] was less than 500 nM each time. Moreover, the concentration for half-maximal inhibition (IC50) was 8.5 nM in experiment [4] and 7.14 nM in experiment [5].

On to `CCCNc1ccc2ncc(-c3ccc4[nH]ncc4c3)n2n1` [CHR-6494], for which the “reduction of H3T3ph” value in experiment [10] is “reduce H3T3ph”.

As to `CN(NC(=O)CC(=O)NN(C)C(=S)c1ccccc1)C(=S)c1ccccc1` [Elesclomol, elesclomol, reference compound], the 50% growth inhibitory concentration (GI50) in experiment [11] was found to be 250 nM; in experiment [12] it was 62 nM; in [13], 250 nM; in experiment [14], 250 nM; in experiment [15], 250 nM.

With `COc1ccccc1-c1c2c(n(CCF)c1C(N)=O)-c1ccncc1OC2(C)C` [Example 73], the results for the half-maximal inhibitory concentration (IC50) in [16], in experiment [4] and in experiment [5] were 1120 nM, 139 nM and 97.3 nM, respectively. In addition, the EC50 is 5430 ± 297 nM in experiment [2] (Homo sapiens, SW-620, 264 h, read-out: mean EC50, colony forming assay); 500 to 10000 nM in experiment [17]; less than 500 nM in experiment [7]. For the same compound, the “effect in colony forming assay” value in experiment [2] is “dose-dependent effect”.

What is called GI50 is the concentration that inhibits growth by half. As a reminder, the IC50 is the concentration that gives 50% inhibition.
